Laboratory results reported in ChEMBL document CHEMBL1201862, “PubChem BioAssay data set” (2004).
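Five compound concentrations were applied to cells in 96-well plates for 48 hours; endpoints were derived by simple linear interpolation of the resulting dose-response curve. GI50 is the concentration that inhibits growth by half.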 Active and inactive are the calls of the source. Rule as the data show it: active = GI50 up to about 1.1 µM and inactive = higher.

What was measured:
Assay in all cases: NCI anticancer screen, dose series, 48 h
[1] = tested on: SK-MEL-28
[2] = tested on: SK-MEL-5
[3] = tested on: A549
[4] = tested on: U-251
[5] = tested on: KM12
[6] = tested on: SW-620
[7] = tested on: NCI-H460
[8] = tested on: MDA-MB-231
[9] = tested on: MCF7
[10] = tested on: UACC-62
[11] = tested on: SF-539
[12] = tested on: NCI-H226
[13] = tested on: Malme-3M
[14] = tested on: HCT-15
[15] = tested on: OVCAR-8
[16] = tested on: Hs-578T
[17] = tested on: CAKI-1
[18] = tested on: EKVX
[19] = tested on: T47D
[20] = tested on: ACHN
[21] = tested on: A498
[22] = tested on: NCI/ADR-RES
[23] = tested on: UO-31
[24] = tested on: HOP-92
[25] = tested on: TK-10
[26] = tested on: BT-549
[27] = tested on: M14
[28] = tested on: NCI-H522
[29] = tested on: MDA-N
[30] = tested on: SF-268
[31] = tested on: RPMI-8226
[32] = tested on: OVCAR-4
[33] = tested on: HCC 2998
[34] = tested on: SR
[35] = tested on: UACC-257
[36] = tested on: HT-29
[37] = tested on: COLO 205
[38] = tested on: IGROV-1
[39] = tested on: HCT-116
[40] = tested on: K562
[41] = tested on: SF-295
[42] = tested on: OVCAR-5
[43] = tested on: NCI-H23
[44] = tested on: SK-OV-3
[45] = tested on: MOLT-4
[46] = tested on: CCRF-CEM
[47] = tested on: 786-0
[48] = tested on: SNB-75
[49] = tested on: SNB-19
[50] = tested on: MDA-MB-435
[51] = tested on: SN12C
[52] = tested on: HL-60
[53] = tested on: DU-145
[54] = tested on: RXF 393
[55] = tested on: PC-3
[56] = tested on: HOP-62
[57] = tested on: OVCAR-3
[58] = tested on: LOX IMVI
[59] = tested on: SK-MEL-2

Cn1/c(=N\S(=O)(=O)c2ccccc2)[nH]c2ccccc21
GI50 [1]: > 100 µM (inactive)
GI50 [2]: > 100 µM (inactive)
GI50 [3]: > 100 µM (inactive)
GI50 [4]: > 100 µM (inactive)
GI50 [5]: > 100 µM (inactive)
GI50 [6]: > 100 µM (inactive)
GI50 [7]: > 100 µM (inactive)
GI50 [8]: > 100 µM (inactive)
GI50 [9]: > 100 µM (inactive)
GI50 [10]: > 100 µM (inactive)
GI50 [11]: > 100 µM (inactive)
GI50 [12]: > 100 µM (inactive)
GI50 [13]: > 100 µM (inactive)
GI50 [14]: > 100 µM
GI50 [15]: > 100 µM (inactive)
GI50 [16]: > 100 µM (inactive)
GI50 [17]: > 100 µM (inactive)
GI50 [18]: > 100 µM (inactive)
GI50 [19]: > 100 µM (inactive)
GI50 [20]: > 100 µM (inactive)
GI50 [21]: > 100 µM (inactive)
GI50 [22]: 91.8 µM (inactive)
GI50 [23]: > 100 µM (inactive)
GI50 [24]: > 100 µM (inactive)
GI50 [25]: > 100 µM (inactive)
GI50 [26]: > 100 µM (inactive)
GI50 [27]: > 100 µM (inactive)
GI50 [28]: > 100 µM (inactive)
GI50 [29]: > 100 µM (inactive)
GI50 [30]: 58.6 µM (inactive)
GI50 [31]: > 100 µM (inactive)
GI50 [32]: > 100 µM (inactive)
GI50 [33]: > 100 µM (inactive)
GI50 [34]: > 100 µM (inactive)
GI50 [35]: > 100 µM (inactive)
GI50 [36]: > 100 µM (inactive)
GI50 [37]: > 100 µM (inactive)
GI50 [38]: > 100 µM (inactive)
GI50 [39]: > 100 µM (inactive)
GI50 [40]: > 100 µM (inactive)
GI50 [41]: > 100 µM (inactive)
GI50 [42]: > 100 µM (inactive)
GI50 [43]: > 100 µM (inactive)
GI50 [44]: > 100 µM (inactive)
GI50 [45]: > 100 µM (inactive)
GI50 [46]: > 100 µM (inactive)
GI50 [47]: > 100 µM (inactive)
GI50 [48]: > 100 µM (inactive)
GI50 [49]: > 100 µM (inactive)
GI50 [50]: > 100 µM (inactive)
GI50 [51]: > 100 µM (inactive)
GI50 [52]: > 100 µM (inactive)
GI50 [53]: > 100 µM (inactive)
GI50 [54]: > 100 µM (inactive)

CCNC(=O)Nc1ccccn1
GI50 [1]: > 100 µM (inactive)
GI50 [2]: > 100 µM (inactive)
GI50 [3]: > 100 µM (inactive)
GI50 [4]: > 100 µM (inactive)
GI50 [5]: > 100 µM (inactive)
GI50 [6]: > 100 µM (inactive)
GI50 [7]: > 100 µM (inactive)
GI50 [8]: > 100 µM (inactive)
GI50 [9]: > 100 µM (inactive)
GI50 [10]: > 100 µM (inactive)
GI50 [11]: > 100 µM (inactive)
GI50 [12]: > 100 µM (inactive)
GI50 [13]: > 100 µM (inactive)
GI50 [15]: > 100 µM (inactive)
GI50 [16]: > 100 µM (inactive)
GI50 [17]: > 100 µM (inactive)
GI50 [18]: > 100 µM (inactive)
GI50 [19]: > 100 µM (inactive)
GI50 [20]: > 100 µM (inactive)
GI50 [21]: > 100 µM (inactive)
GI50 [23]: > 100 µM (inactive)
GI50 [24]: > 100 µM (inactive)
GI50 [25]: > 100 µM (inactive)
GI50 [26]: > 100 µM (inactive)
GI50 [27]: > 100 µM (inactive)
GI50 [28]: > 100 µM (inactive)
GI50 [55]: > 100 µM (inactive)
GI50 [29]: > 100 µM (inactive)
GI50 [30]: > 100 µM (inactive)
GI50 [32]: > 100 µM (inactive)
GI50 [33]: > 100 µM (inactive)
GI50 [34]: > 100 µM (inactive)
GI50 [35]: > 100 µM (inactive)
GI50 [36]: > 100 µM (inactive)
GI50 [37]: > 100 µM (inactive)
GI50 [38]: > 100 µM (inactive)
GI50 [39]: > 100 µM (inactive)
GI50 [40]: > 100 µM (inactive)
GI50 [41]: > 100 µM (inactive)
GI50 [56]: > 100 µM (inactive)
GI50 [42]: > 100 µM (inactive)
GI50 [43]: > 100 µM (inactive)
GI50 [57]: > 100 µM (inactive)
GI50 [44]: > 100 µM (inactive)
GI50 [45]: > 100 µM (inactive)
GI50 [46]: > 100 µM (inactive)
GI50 [47]: > 100 µM (inactive)
GI50 [48]: 84.5 µM (inactive)
GI50 [49]: > 100 µM (inactive)
GI50 [50]: > 100 µM (inactive)
GI50 [51]: > 100 µM (inactive)
GI50 [52]: > 100 µM (inactive)
GI50 [53]: > 100 µM (inactive)
GI50 [54]: > 100 µM (inactive)

COC(=O)CCCC(=O)NC1=C(Nc2ccc(OC)cc2)C(=O)c2ccccc2C1=O
GI50 [1]: 20.9 µM (inactive)
GI50 [3]: 22.3 µM (inactive)
GI50 [4]: 31.4 µM (inactive)
GI50 [5]: 28.8 µM (inactive)
GI50 [6]: 40.7 µM (inactive)
GI50 [7]: 15.9 µM (inactive)
GI50 [8]: 30.1 µM (inactive)
GI50 [9]: 17.1 µM (inactive)
GI50 [10]: 12.8 µM (inactive)
GI50 [11]: 19.3 µM (inactive)
GI50 [13]: 3.4 µM (inactive)
GI50 [14]: 23.8 µM
GI50 [15]: 31 µM (inactive)
GI50 [16]: 22.8 µM (inactive)
GI50 [17]: 43.2 µM (inactive)
GI50 [58]: 25.9 µM (inactive)
GI50 [18]: 21.9 µM (inactive)
GI50 [19]: 41.3 µM (inactive)
GI50 [20]: 28 µM (inactive)
GI50 [21]: 20.7 µM (inactive)
GI50 [22]: 21.9 µM (inactive)
GI50 [23]: 46.2 µM (inactive)
GI50 [24]: 71 µM (inactive)
GI50 [25]: > 100 µM (inactive)
GI50 [26]: 19.5 µM (inactive)
GI50 [27]: 19.4 µM (inactive)
GI50 [28]: 37.5 µM (inactive)
GI50 [29]: 20.7 µM (inactive)
GI50 [30]: 45.6 µM (inactive)
GI50 [31]: 26.4 µM (inactive)
GI50 [32]: 17.8 µM (inactive)
GI50 [33]: 20.6 µM (inactive)
GI50 [34]: 33.1 µM (inactive)
GI50 [35]: 18.1 µM (inactive)
GI50 [37]: 25.4 µM (inactive)
GI50 [38]: 18 µM (inactive)
GI50 [39]: 19.7 µM (inactive)
GI50 [40]: 23.9 µM (inactive)
GI50 [41]: 30.4 µM (inactive)
GI50 [42]: 18.8 µM (inactive)
GI50 [43]: 20.4 µM (inactive)
GI50 [57]: 6.25 µM (inactive)
GI50 [44]: 34.1 µM (inactive)
GI50 [45]: 24.8 µM (inactive)
GI50 [46]: 20.8 µM (inactive)
GI50 [47]: 34.6 µM (inactive)
GI50 [59]: 17.9 µM (inactive)
GI50 [48]: 32.2 µM (inactive)
GI50 [49]: 42.7 µM (inactive)
GI50 [50]: 18.2 µM (inactive)
GI50 [51]: 27.7 µM (inactive)
GI50 [52]: 21.7 µM (inactive)
GI50 [53]: 16.3 µM (inactive)

C=C1C(=O)OC2C3C(=C)[C@@H](OC(C)=O)CC3C(C)=CC(OC(=O)C(C)(OC(C)=O)C(C)OC(C)=O)[C@@H]12 (some centres not stated)
GI50 [1]: 15.1 µM (inactive)
GI50 [2]: 12.6 µM (inactive)
GI50 [3]: 24.3 µM (inactive)
GI50 [4]: 16.5 µM (inactive)
GI50 [5]: 16.8 µM (inactive)
GI50 [6]: 9.33 µM (inactive)
GI50 [7]: 23.6 µM (inactive)
GI50 [8]: 18.5 µM (inactive)
GI50 [9]: 11.5 µM (inactive)
GI50 [10]: 13.3 µM (inactive)
GI50 [11]: 17.4 µM (inactive)
GI50 [12]: 23.8 µM (inactive)
GI50 [13]: 13.6 µM (inactive)
GI50 [14]: 12.8 µM
GI50 [15]: 30.1 µM (inactive)
GI50 [16]: 23.4 µM (inactive)
GI50 [17]: 10.6 µM (inactive)
GI50 [58]: 13.4 µM (inactive)
GI50 [18]: 16.6 µM (inactive)
GI50 [19]: 23.3 µM (inactive)
GI50 [20]: 13.7 µM (inactive)
GI50 [23]: 16.4 µM (inactive)
GI50 [25]: 14.1 µM (inactive)
GI50 [26]: 18.5 µM (inactive)
GI50 [27]: 14.6 µM (inactive)
GI50 [28]: 2.52 µM (inactive)
GI50 [55]: 17.3 µM (inactive)
GI50 [29]: 14.9 µM (inactive)
GI50 [30]: 21.7 µM (inactive)
GI50 [31]: 6.55 µM (inactive)
GI50 [32]: 13.3 µM (inactive)
GI50 [33]: 18.6 µM (inactive)
GI50 [34]: 22.2 µM (inactive)
GI50 [35]: 14.9 µM (inactive)
GI50 [36]: 14.4 µM (inactive)
GI50 [37]: 14.8 µM (inactive)
GI50 [38]: 18.5 µM (inactive)
GI50 [39]: 11 µM (inactive)
GI50 [40]: 7.29 µM (inactive)
GI50 [41]: 61.2 µM (inactive)
GI50 [56]: 37.4 µM (inactive)
GI50 [42]: 21.9 µM (inactive)
GI50 [43]: 18.6 µM (inactive)
GI50 [57]: 13.2 µM (inactive)
GI50 [44]: 83.2 µM (inactive)
GI50 [45]: 6.56 µM (inactive)
GI50 [46]: 3.25 µM (inactive)
GI50 [47]: 16.6 µM (inactive)
GI50 [59]: 12.3 µM (inactive)
GI50 [48]: 18.9 µM (inactive)
GI50 [49]: 85.7 µM (inactive)
GI50 [50]: 13.5 µM (inactive)
GI50 [51]: 15.7 µM (inactive)
GI50 [52]: 2.52 µM (inactive)
GI50 [53]: 16.1 µM (inactive)
GI50 [54]: 12.3 µM (inactive)
